# Several values for one entry are separate records, joined by “and”; a condition that tells them apart may be missing. Equal entries are not always repeated. Where two headings read alike, the source gives them in different places.
# Tests used:
# SFRP-1 [1] = target: T1, SFRP-1 (Homo sapiens, UniProt Q8N474); assay: Fluorescence polarization binding assay (competitive displacement of a probe compound from SFRP-1); settings: fluorescence anisotropy, 45 nM SFRP-1, 20 nM probe;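 further: test compound competes with a fluorescent probe held by SFRP-1, seen as a drop in probe anisotropy after incubation in darkness, with anisotropy as function of rising compound dose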
# T1 sequence (Q8N474 32-314): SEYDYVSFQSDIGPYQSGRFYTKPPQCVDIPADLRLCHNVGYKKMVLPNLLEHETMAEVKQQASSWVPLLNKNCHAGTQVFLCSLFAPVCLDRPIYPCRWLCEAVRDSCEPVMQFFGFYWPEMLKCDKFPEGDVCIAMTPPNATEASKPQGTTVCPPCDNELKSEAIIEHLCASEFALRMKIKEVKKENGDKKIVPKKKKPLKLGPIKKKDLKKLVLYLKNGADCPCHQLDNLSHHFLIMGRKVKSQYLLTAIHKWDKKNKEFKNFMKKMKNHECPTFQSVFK
# SFRP-1 [2] = target: T1, SFRP-1; assay: Cell-based assay for in vitro measurement of SFRP-1/SARP2 antagonist activity (U2OS cells co-transfected with 16x TCF-tk-Luciferase reporter, Wnt and hSFRP-1); settings: for fold induction at 10 µM / fold induction at 15 µM: U2OS; for fold induction at 10 µM: read-out: Fold Induction with SFRP-1, U2OS cells, single dose 10 μM, luciferase reporter, fold induction over SFRP-1 control;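 on all read-outs here: U2OS cells co-transfected with a TCF-tk luciferase reporter, a Wnt vector, hSFRP-1 or empty vector and CMV-βgal, luciferase luminescence read in cell lysates alongside βgal activity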
# [3] = read-out: Fold Induction with SFRP-1, Conc 15 μM, single dose, luciferase reporter, fold induction over SFRP-1 control, cells with SFRP-1
# [4] = read-out: Fold Induction without SFRP-1, Conc 15 μM, single dose, luciferase reporter, cells without SFRP-1 (specificity control)
# [5] = read-out: Fold Induction with SFRP-1, Conc 15 μM, with SFRP-1, fold induction over SFRP-1 control, single dose
# [6] = read-out: Fold Induction without SFRP-1, Conc 15 μM, without SFRP-1, single dose
Compound,IC50 (SFRP-1 [1]),EC50 (SFRP-1 [2]) [nM],fold induction at 10 µM (SFRP-1 [2]),fold induction at 15 µM (SFRP-1 [2]; [3]),fold induction at 15 µM (SFRP-1 [2]; [4]),fold induction at 15 µM (SFRP-1 [2]; [5]),fold induction at 15 µM (SFRP-1 [2]; [6])
"O=S(=O)(NCCC1CCNCC1)c1cc(S(=O)(=O)c2ccccc2)ccc1C(F)(F)F [Example 940, 5-(phenylsulfonyl)-N-(2-piperidin-4-ylethyl)-2-(trifluoromethyl)benzenesulfonamide]",1100 nM,2280,4.1,,,,
"CC(C)c1ccc(S(=O)(=O)c2ccc(NCCC#N)cc2)cc1S(=O)(=O)NCC1CCOCC1 [Example 536, 5-({4-[(2-cyanoethyl)amino]phenyl}sulfonyl)-2-isopropyl-N-(tetrahydro-2H-pyran-4-ylmethyl)benzenesulfonamide]",400 nM,,,3,1.2,,
"O=C(c1ccc(-c2ccccc2)nc1)N1CCC(NS(=O)(=O)c2cc(S(=O)(=O)c3ccccc3)ccc2C(F)(F)F)CC1 [Example 1024, N-{1-[(6-phenylpyridin-3-yl)carbonyl]piperidin-4-yl}-5-(phenylsulfonyl)-2-(trifluoromethyl)benzenesulfonamide]",200 nM,236,,,,,
"COc1cccc(S(=O)(=O)c2ccc(C(C)C)c(S(=O)(=O)NC3CCOCC3)c2)c1 [Example 598, 2-isopropyl-5-[(3-methoxyphenyl)sulfonyl]-N-(tetrahydro-2H-pyran-4-yl)benzenesulfonamide]",900 nM,,,3.6,1.4,,
"C[C@@H](C(N)=O)N1CCC(NS(=O)(=O)c2cc(S(=O)(=O)c3ccccc3)ccc2C(F)(F)F)CC1 [Example 1039, (2S)-2-[4-({[5-(phenylsulfonyl)-2-(trifluoromethyl)phenyl]sulfonyl}amino)piperidin-1-yl]propanamide]",400 nM,244,,,,,
"O=C(O)c1ccc(-c2ccc(CNS(=O)(=O)c3cc(S(=O)(=O)c4ccccc4)ccc3C(F)(F)F)cc2)cc1 [Example 979, 4′-[({[5-(phenylsulfonyl)-2-(trifluoromethyl)phenyl]sulfonyl}amino)methyl]biphenyl-4-carboxylic acid]",2200 nM,2940,,,,,
"Cc1ccc(S(=O)(=O)c2ccccc2)cc1S(=O)(=O)NC1CCN(C(=O)N2CCOCC2)CC1 [Example 502, 2-methyl-N-[1-(morpholin-4-ylcarbonyl)piperidin-4-yl]-5-(phenylsulfonyl)benzenesulfonamide]",3000 nM,,,2.9,1,,
"O=S(=O)(NC1CCOCC1)c1cc(S(=O)(=O)c2cccc(Cl)c2)ccc1C(F)(F)F [Example 754, 5-[(3-chlorophenyl)sulfonyl]-N-(tetrahydro-2H-pyran-4-yl)-2-(trifluoromethyl)benzenesulfonamide]",400 nM,1980,2.5,,,,
"O=C(CN1CCC(NS(=O)(=O)c2cc(S(=O)(=O)c3ccccc3)ccc2C(F)(F)F)CC1)c1ccccc1 [Example 751, N-[1-(2-oxo-2-phenylethyl)piperidin-4-yl]-5-(phenylsulfonyl)-2-(trifluoromethyl)benzenesulfonamide]",300 nM,4850,3.1,,,,
"CNc1ccc(S(=O)(=O)c2ccc(C(C)C)c(S(=O)(=O)NCCc3ccccn3)c2)cc1Cl [Example 605, 5-{[3-chloro-4-(methylamino)phenyl]sulfonyl}-2-isopropyl-N-(2-pyridin-2-ylethyl)benzenesulfonamide]",600 nM,,,3.2,1.1,,
"O=C(c1cc(Cl)cnc1Cl)N1CCC(NS(=O)(=O)c2cc(S(=O)(=O)c3ccccc3)ccc2C(F)(F)F)CC1 [Example 977, N-{1-[(2,5-dichloropyridin-3-yl)carbonyl]piperidin-4-yl}-5-(phenylsulfonyl)-2-(trifluoromethyl)benzenesulfonamide]",180 nM,1100,,,,,
"CC(C)(C)OC(=O)N1CCC(CNS(=O)(=O)c2cc(S(=O)(=O)c3ccccc3)ccc2C(F)(F)F)CC1 [Example 896, tert-butyl 4-[({[5-(phenylsulfonyl)-2-(trifluoromethyl)phenyl]sulfonyl}amino)methyl]piperidine-1-carboxylate]",300 nM,675,2.9,,,,
"CC(C)c1ccc(S(=O)(=O)c2ccc(C(C)(C)C)cc2)cc1S(=O)(=O)NCCc1ccccn1 [Example 435, 5-[(4-tert-butylphenyl)sulfonyl]-2-isopropyl-N-(2-pyridin-2-ylethyl)benzenesulfonamide]",2600 nM,,,,,1.7,1
"CC(=O)N1CCC(NS(=O)(=O)c2cc(S(=O)(=O)c3ccc(F)cc3)ccc2C)CC1 [Example 585, N-(1-acetylpiperidin-4-yl)-5-[(4-fluorophenyl)sulfonyl]-2-methylbenzenesulfonamide]",8000 nM,,,2.7,1.1,,
"Cc1ccc(S(=O)(=O)c2ccc(F)cc2)cc1S(=O)(=O)NCCN1CCOCC1 [Example 169, 5-[(4-fluorophenyl)sulfonyl]-2-methyl-N-(2-morpholin-4-ylethyl)benzenesulfonamide]",13000 nM,,,,,2.6,0.9
"CC(C)c1ccc(S(=O)(=O)c2ccc(N(C)CCC#N)cc2)cc1S(=O)(=O)NC1CCOCC1 [Example 580, 5-({4-[(2-cyanoethyl)(methyl)amino]phenyl}sulfonyl)-2-isopropyl-N-(tetrahydro-2H-pyran-4-yl)benzenesulfonamide]",700 nM,,,2.8,1.3,,
"CC(C)c1ccc(S(=O)(=O)c2ccccc2)cc1S(=O)(=O)NC1CCNCC1 [Example 924, 2-isopropyl-5-(phenylsulfonyl)-N-piperidin-4-ylbenzenesulfonamide]",1800 nM,1920,2.5,,,,
"O=C(c1cscn1)N1CCC(NS(=O)(=O)c2cc(S(=O)(=O)c3ccccc3)ccc2C(F)(F)F)CC1 [Example 1090, 5-(phenylsulfonyl)-N-[1-(1,3-thiazol-4-ylcarbonyl)piperidin-4-yl]-2-(trifluoromethyl)benzenesulfonamide]",60 nM,393,,,,,
"CCCc1ccc(S(=O)(=O)c2ccc(F)cc2)cc1S(=O)(=O)NCCc1ccccc1 [Example 559, 5-[(4-fluorophenyl)sulfonyl]-N-(2-phenylethyl)-2-propylbenzenesulfonamide]",1200 nM,,,2.3,1,,
"COC(=O)CN(C)CCNS(=O)(=O)c1cc(S(=O)(=O)c2ccccc2)ccc1C(F)(F)F [Example 906, methyl N-methyl-N-[2-({[5-(phenylsulfonyl)-2-(trifluoromethyl)phenyl]sulfonyl}amino)ethyl]glycinate]",900 nM,1340,2.9,,,,
"Cc1nccn1CCNS(=O)(=O)c1cc(S(=O)(=O)c2ccc(F)cc2)ccc1C(C)C [Example 583, 5-[(4-fluorophenyl)sulfonyl]-2-isopropyl-N-[2-(2-methyl-1H-imidazol-1-yl)ethyl]benzenesulfonamide]",300 nM,,,3.9,1.1,,
"O=C(N1CCC(NS(=O)(=O)c2cc(S(=O)(=O)c3ccccc3)ccc2Cl)CC1)C(F)(F)F [Example 647, 2-chloro-5-(phenylsulfonyl)-N-[1-(trifluoroacetyl)piperidin-4-yl]benzenesulfonamide]",1400 nM,,,3.9,1.1,,
"COc1ccc2c(c1)C(O)C(NS(=O)(=O)c1cc(S(=O)(=O)c3ccccc3)ccc1C(F)(F)F)C2 (stereo not drawn) [Example 1044, N-(1-hydroxy-6-methoxy-2,3-dihydro-1H-inden-2-yl)-5-(phenylsulfonyl)-2-(trifluoromethyl)benzenesulfonamide]",500 nM,1340,,,,,
"CC(C)c1ccc(S(=O)(=O)c2ccc(F)cc2)cc1S(=O)(=O)NC1CCN(C(=O)c2ccc(C#N)cc2)CC1 [Example 531, N-[1-(4-cyanobenzoyl)piperidin-4-yl]-5-[(4-fluorophenyl)sulfonyl]-2-isopropylbenzenesulfonamide]",400 nM,,,2.5,1.1,,
"CC(C)c1ccc(S(=O)(=O)c2ccc(N(C)C)cc2)cc1S(=O)(=O)NCCC1CCOCC1 [Example 546, 5-{[4-(dimethylamino)phenyl]sulfonyl}-2-isopropyl-N-[2-(tetrahydro-2H-pyran-4-yl)ethyl]benzenesulfonamide]",1500 nM and 2600 nM,,,2.2,1.2,,
"Cc1cc(C(=O)N2CCC(NS(=O)(=O)c3cc(S(=O)(=O)c4ccccc4)ccc3C(F)(F)F)CC2)cc(Cl)n1 [Example 856, N-[1-(2-chloro-6-methylisonicotinoyl)piperidin-4-yl]-5-(phenylsulfonyl)-2-(trifluoromethyl)benzenesulfonamide]",100 nM,360,4.2,,,,

# From patent publication US20060276464A1, “Diarylsulfone sulfonamides and use thereof” (Wyeth, priority 2005, published 2006)
